According to US10627402B2, “Peptides for targeting gastric cancer, and medical use tehreof” (priority 2014, dated 2020):

Legend:
[1] = system: patient's gastric cancer tissue; test: Titering of phages eluted from extracted cancer tissue, relative to tissue weight; format: in vivo, mouse
Description: (§1) Considering overcoming limitations that existing animal models transplanted with cultured cancer cells had, an ideal animal model of cancer similar to actual patient's cancer microenvironments is prepared. Then, to establish an animal model that can confirm influence of an irradiation-dependent cancer tissue, first, a mouse model transplanted with a cancer tissue that was extracted from an actual patient having gastric cancer was established. Regarding the establishment of such an animal model, the cancer tissue extracted from a patient was cultured in an NOD/SCID mouse. Once the cancer tissue was found in the NOD/SCID mouse, subculturing was carried out by using a Balb/c nude mouse, beginning from the next subculturing. In detail, after an NOD/SCID mouse was anesthetized via intraperitoneal injection of anesthetics, the cancer tissue was cut into pieces each having a size of 3×3 mm. Next, each of both flanks of the NOD/SCID mouse was transplanted with a piece of the cut cancer tissues, treated with a mixed solution of 100 μl of 100 IU/ml penicillin, 100 μg/ml streptomycin, 100 μg/ml gentamicin, and 2.5 μg/ml amphotericin B antibiotics, and then, sutured. The NOD/SCID mouse was recovered on a heating pad (for about 2 hours). Afterwards, the formation and growth of tumors were observed every week. When the cancer tissues grew to a size of 400-500 mm^3, the cancer tissues were separated and cut into pieces each having a size of 3×3 mm for subculturing. Next, for next subculturing, a nude mouse was anesthetized via intraperitoneal injection of anesthetics, and a piece of the cut cancer tissues was transplanted subcutaneously on the right thigh of the nude mouse. A transplantation site was changed from the flank to the both thighs so that irradiation can be locally done without affecting other organs during irradiation. That is, a mouse model in which a cancer tissue that underwent subculturing and was re-transplanted up to four times was formed was established. […] After having recovery time for no longer than 24 hours, in vivo peptide screening was performed. Here, as a control group in an irradiated population, a mouse model that was not irradiated among the same mouse models was used to screen a peptide.
(§2) After each of the prepared phages expressing the loop peptide was injected into the ratio-sensitive xenograft mouse model of Example 1 and the control group through the vein tail of the mouse, images were measured for 2 days immediately after the injection, thereby confirming images showing in vivo circulation of the peptide and the targeting of the peptide only in the cancer tissue while the targeting to other organs and tissues gradually disappeared. […] In addition, to verify which part of the cancer tissue was targeted by each of the loop peptide-expressing phages via ex vivo imaging, only the cancer tissue was separated and extracted, and the whole cancer tissue itself and the respective cancer tissue were subjected to fragmentation into several pieces.
To compare targeting efficiency more accurately based on the results of FIGS. 5 and 6, the pieces of the extracted cancer tissue the pieces of the extracted cancer tissue were collected independently, and phages bound to the cancer tissues were eluted. The concentration of each of the eluted phages was measured according to titering, and due to different size and weight of the extracted cancer tissue, the weight of each cancer tissue was also measured in terms of establishing numerical standardization. In this regard, the amount of the identified phages was calculated relative to the weight of the cancer tissue. In addition, to more accurately quantify each imaging result, the in vivo imaging and the ex vivo imaging were confirmed by measuring ROI values that were determined using the IVIS spectrum (Xenogen) program, and the results thereof are shown in Table 2.

[2] = system: patient's gastric cancer tissue; test: In vivo imaging of Cy5.5-labeled peptide-expressing phages (IVIS spectrum, ROI values); parameters: species or system mouse; unit not given here; settings: Cy5.5-labeled phage, tail vein injection, 2nd day
Description: as §1
(§3) In particular, 1 μg/μl of N-hydroxysuccinimide esters of Cy5.5 (Amersham) was added to 1 mL of bicarbonate buffer (pH 8.3) having the phage concentration of 10^11 plaque forming units (pfu), and then, in a condition where a dark environment was maintained, […] a phage-surface protein was linked to the Cy5.5 fluorescent probe at room temperature for 3 hours. That is, loop peptide-expressing phages to which the Cy5.5 fluorescent probe was linked were each obtained by precipitation with 170 μl of 20% (w/v) PEG 8000/2.5 M NaCl solution and purification. To determine a proportion of the Cy5.5 fluorescent probe linked to each of the finally obtained phage samples, an IVIS spectrum imaging system (Xenogen) was used for measurement, and region of interest (ROI) values were determined using the software program of a corresponding device. Accordingly, it was confirmed that the Cy5.5 fluorescent probe was linked to each of the phage samples at almost the same linking proportion.
as §2, with “pieces. […]” for “pieces.”

[3] = system: patient's gastric cancer tissue; test: Ex vivo imaging of extracted cancer tissue (IVIS spectrum, ROI values); format: in vivo, mouse; parameters: unit not given here
Description: as §1, §3
as §2, with “pieces. […]” for “pieces.”

[4] = Non-irradiated population as control

Substance	pfu/mg [1, 4]	in vivo ROI [2, 4]	ex vivo ROI [3, 4]	pfu/mg ([1]; Irradiated population (10 Gy))	in vivo ROI ([2]; Irradiated population (10 Gy))	ex vivo ROI ([3]; Irradiated population (10 Gy))
NWGDRIL [Peptide W1, 7-amino-acid loop peptide from non-irradiated population; tested as Cy5.5-labeled M13 phage expressing it]	11.8 pfu/mg	1.86	2.08	–	–	–
QRSLPSL [Peptide W2, 7-amino-acid loop peptide from non-irradiated population; tested as Cy5.5-labeled M13 phage expressing it]	18.2 pfu/mg	2.19	2.68	–	–	–
RYVGTLF [Peptide P2, 7-amino-acid loop peptide from irradiated population; tested as Cy5.5-labeled M13 phage expressing it]	–	–	–	6.3 pfu/mg	9.05	38.83
DVWHSAY [Peptide W3, 7-amino-acid loop peptide from non-irradiated population; tested as Cy5.5-labeled M13 phage expressing it]	8.1 pfu/mg	1.90	3.54	–	–	–
NRGDRIL [Peptide P3, 7-amino-acid loop peptide from irradiated population; tested as Cy5.5-labeled M13 phage expressing it]	–	–	–	18.6 pfu/mg	19.83	77.85
TVRTSAD [Peptide P1, 7-amino-acid loop peptide from irradiated population; tested as Cy5.5-labeled M13 phage expressing it]	–	–	–	25.3 pfu/mg	16.44	70.66
Cy5.5 [reference compound]	–	1.00	1.00	–	1.00	1.00
